Data taken from patent US5834458A, “Heterocyclic compounds and their use” (Eli Lilly and Company, priority 1996, dated 1998).
Where two headings read alike, the source gives them in different places.

How the values were obtained:
[1] = target: muscarinic acetylcholine receptors; test: inhibition of specific binding of 3H-Oxotremorine-M (3H-Oxo) to rat cortex; set-up: species or system rat (male Wistar); conditions: 3H-Oxotremorine 1.0 nM, 30 min, 25° C., pH 7.4
Excerpt: The pharmacological properties of the compounds of the invention can be illustrated by determining their capability to inhibit the specific binding of ^3 H-Oxotremorine-M (^3 H-Oxo). Birdsdall N. J. M., Hulme E. C., and Burgen A. S. V. (1980). "The Character of Muscarinic Receptors in Different Regions of the Rat Brain". Proc. Roy. Soc. London (Series B) 207,1.
^3 H-oxo labels muscarinic receptor in the CNS (with a preference for agonist domains of the receptors). Three different sites are labeled by ^3 H-Oxo. […] Using the present experimental conditions only the high and medium affinity sites are determined.
The inhibitory effects of compounds on ^3 H-oxo binding reflects the affinity for muscarinic acetylcholine receptors.
All preparations are performed at 0°-4° C. unless otherwise indicated. Fresh cortex (0.1-1 g) from male Wistar rats (150-250 g) is homogenized for 5-10 s in 10 mL […] Hepes pH: 7.4, with an Ultra-Turrax homogenizer. The homogenizer is rinsed with 10 mL of buffer and the combined suspension centrifuged for 15 min. at 40,000×g. The pellet is washed three times with buffer. In each step the pellet is homogenized as before in 2×10 mL of buffer and centrifuged for 10 min. at 40,000×g.
The final pellet is homogenized in 20 mM Hepes pH: 7.4 (100 mL per g of original tissue) and used for binding assay. Aliquots of 0.5 mL is added 25 μL of test solution and 25 μL of ^3 H-Oxotremorine (1.0 nM, final concentration) mixed and incubated for 30 min. at 25° C. Non-specific binding is determined in triplicate using arecoline (1 μg/mL, final concentration) as the test substance. After incubation samples are added 5 mL of ice-cold buffer and poured directly onto Whatman GF/C glass fiber filters under suction and immediately washed 2 times with 5 mL of ice-cold buffer. The amount of radioactivity on the filters are determined by conventional liquid scintillation counting. Specific binding is total binding minus non specific binding.
Test substances are dissolved in 10 mL water (if necessary heated on a steam-bath for less than 5 min.) at a concentration of 2.2 mg/mL. 25-75% inhibition of specific binding must be obtained before calculation of IC50. The test value will be given as IC50 (the concentration (nM) of the test substance which inhibits the specific binding of ^3 H-oxo by 50%). IC50 =(applied test substance concentration) x([…])nM where Co is specific binding in control assays and Cx is the specific binding in the test assay. (The calculations assume normal mass-action kinetics).

[2] = target: muscarinic receptor in the CNS; conditions: read-out: affinity of site labeled by ^3 H-Oxo, cited from earlier work

Structure (SMILES) | IC50 [1] [nM] | also measured
CCCCCCOc1nsnc1C1CC2CCC1N(C)C2 (single isomer, unassigned) [Compound 7, ENDO 2-Aza-6-(4-hexyloxy-1,2,5-thiadiaz-3-yl)-2-methyl-bicyclo[2.2.2]octane] | 4.8 | –
CCCCCCOc1nsnc1C1CC2CCC1N(C)C2 (single isomer, unassigned) [Compound 8, EXO 2-Aza-6-(4-hexyloxy-1,2,5-thiadiaz-3-yl)-2-methyl-bicyclo[2.2.2]octane] | 277 | –
CC(C)CCCSc1nsnc1C1CC2CCC1NC2 (stereo not drawn) [Compound 17, EXO 2-Aza-6-(4-((4-methylpentyl)thio)-1,2,5-thiadiaz-3-yl)-bicyclo[2.2.2]octane] | 612 | –
CC(C)CCCSc1nsnc1C1CC2CCC1NC2 (stereo not drawn) [Compound 18, ENDO 2-Aza-6-(4-((4-methylpentyl)thio)-1,2,5-thiadiaz-3-yl)-bicyclo[2.2.2]octane] | 17 | –
FC(F)(F)CCCSc1nsnc1C1CC2CCC1NC2 (stereo not drawn) [Compound 20, ENDO 2-Aza-6-(4-((4,4,4-trifluorobutyl)thio)-1,2,5-thiadiaz-3-yl)-bicyclo[2.2.2]octane] | 4.8 | –
FC(F)(F)c1ccc(CSc2nsnc2C2CC3CCC2NC3)cc1 (stereo not drawn) [Compound 22, EXO 2-Aza-6-(4-(((4-trifluoromethyl)phenyl)methylthio)-1,2,5-thiadiaz-3-yl)-bicyclo[2.2.2]octane] | 680 | –
N#Cc1ccc(CSc2nsnc2C2CC3CCC2NC3)s1 (stereo not drawn) [Compound 25, ENDO 2-Aza-6-(4-((5-cyanothien-2-yl)methylthio)-1,2,5-thiadiaz-3-yl)-bicyclo[2.2.2]octane] | 5.4 | –
N#Cc1ccc(CSc2nsnc2C2CC3CCC2NC3)s1 (stereo not drawn) [Compound 26, EXO 2-Aza-6-(4-((5-cyanothien-2-yl)methylthio)-1,2,5-thiadiaz-3-yl)-bicyclo[2.2.2]octane] | 31 | –
CCCCCCSc1nsnc1C1CC2CCC1NC2 (stereo not drawn) [Compound 27, EXO 2-Aza-6-(4-hexylthio-1,2,5-thiadiaz-3-yl)-bicyclo[2.2.2]octane] | 3 | –
CCCCCCSc1nsnc1C1CC2CCC1NC2 (stereo not drawn) [Compound 28, EXO 2-Aza-6-(4-hexylthio-1,2,5-thiadiaz-3-yl)-bicyclo[2.2.2]octane] | 86 | –
CCCCCOc1nsnc1C1CC2CCC1NC2 (stereo not drawn) [Compound 30, ENDO 2-aza-6-(4-pentoxy-1,2,5-thiadiaz-3-yl)-bicyclo[2.2.2]octane] | 5.9 | –
CCCCCOc1nsnc1C1CC2CCC1NC2 (stereo not drawn) [Compound 31, EXO 2-aza-6-(4-pentoxy-1,2,5-thiadiaz-3-yl)-bicyclo[2.2.2]octane] | 161 | –
FC(F)(F)c1ccc(COc2nsnc2C2CC3CCC2NC3)cc1 (stereo not drawn) [Compound 32, EXO 2-Aza-6-(4-((4-trifluoromethylphenyl)methoxy)-1,2,5-thiadiaz-3-yl)-bicyclo[2.2.2]octane] | 335 | –
FC(F)(F)c1ccc(COc2nsnc2C2CC3CCC2NC3)cc1 (stereo not drawn) [Compound 33, EXO 2-Aza-6-(4-((4-trifluoromethylphenyl)methoxy)-1,2,5-thiadiaz-3-yl)-bicyclo[2.2.2]octane] | 208 | –
C[N+](C)(C)CC#CCN1CCCC1=O [^3 H-Oxo, ^3 H-Oxotremorine-M] | – | Kd ([2]; first of three sites (high affinity)): 1.8 nM; Kd ([2]; second of three sites (medium affinity)): 20 nM; Kd ([2]; third of three sites, not determined under the present experimental conditions): 3000 nM
